Legend:
[1] = Selectivity for PDE5 of human platelets over PDE1 of bovine heart
[2] = Selectivity for PDE5 of human platelets over PDE4 of rat kidney
[3] = target: T1, cGMP-specific 3',5'-cyclic phosphodiesterase (Homo sapiens, UniProt O76074); experiment: Inhibition of PDE5 of human platelets
[4] = Selectivity for PDE5 of human platelets over PDE6 of bovine retina
[5] = Selectivity for PDE5 of human platelets over PDE2 of rat kidney
[6] = target: T1, cGMP-specific 3',5'-cyclic phosphodiesterase; experiment: Relaxant effect on rabbit corpus cavernosal tissue strips; type: tissue-based, Oryctolagus cuniculus, Corpus cavernosum; conditions: target entry is the homologue from another species
[7] = Bioavailability was determined in male rats after a dose of 21 uM/kg.; type: ADME, organism-based; conditions: rat, in vivo
[8] = Half life was determined in dogs after a dose of 23 uM/kg.; type: ADME, organism-based, Canis lupus familiaris; conditions: dog, in vivo
[9] = Half life was determined in male rats after a dose of 21 uM/kg.; type: ADME, organism-based; conditions: rat, in vivo
[10] = Bioavailability was determined in dogs after a dose of 23 uM/kg.; type: ADME, organism-based, Canis lupus familiaris; conditions: dog, in vivo
[11] = Bioavailability was determined in male rats.; type: ADME, organism-based; conditions: rat, in vivo
[12] = Half life was determined in male rats.; type: ADME, organism-based; conditions: rat, in vivo
[13] = Half life was determined in dogs; type: ADME, organism-based, Canis lupus familiaris; conditions: dog, in vivo
[14] = Bioavailability was determined in dogs.; type: ADME, organism-based, Canis lupus familiaris; conditions: dog, in vivo

| IC50 ratio [1] | IC50 ratio [2] | IC50 [3] | IC50 ratio [4] | IC50 ratio [5] | SMILES | other results |
| --- | --- | --- | --- | --- | --- | --- |
| 2700 | 340 | 1.4 nM | 35 | 5200 | CCn1ncc2c(NCc3ccc(OC)c(Cl)c3)c(C(=O)NCCCCCO)cnc21 |  |
| 43 | 1 | 180 nM | 2 | 45 | CCCCNc1c(C(=O)OCC)cnc2c1cnn2CC [CARTAZOLATE] |  |
|  |  | 38 nM |  |  | CCn1ncc2c(NCc3ccc(OC)c(Cl)c3)c(C(=O)O)cnc21 |  |
|  |  | 1 nM |  |  | CCn1ncc2c(N[C@@H](C)C3CCCCC3)c3cc(C#N)ccc3nc21 |  |
| 6400 | 600 | 0.8 nM | 47 | 9200 | CCn1ncc2c(NCc3ccc(OC)c(Cl)c3)c(C(=O)NCc3ccncc3)cnc21 | EC50 [6]: 44 nM; bioavailability [7]: 33%; half-life [8]: 2.3 h; half-life [9]: 1.2 h; bioavailability [10]: 66% |
| 2500 | 760 | 1.8 nM | 22 | 8000 | CCn1ncc2c(NCc3ccc(OC)c(Cl)c3)c(C(=O)NC[C@@H]3CCCO3)cnc21 |  |
| 2900 | 460 | 1.6 nM | 19 | 3000 | CCn1ncc2c(NCc3ccc(OC)c(Cl)c3)c(C(=O)NCCCN3CCCC3=O)cnc21 |  |
|  |  |  |  |  | CCCc1nn(C)c2c(=O)[nH]c(-c3cc(S(=O)(=O)N4CCN(C)CC4)ccc3OCC)nc12 | bioavailability [11]: 15%; half-life [12]: 0.3 h; half-life [13]: 5.2 h; bioavailability [14]: 54% |

Source: ChEMBL document CHEMBL1134846, “Substituted pyrazolopyridines as potent and selective PDE5 inhibitors: potential agents for treatment of erectile dysfunction” (J Med Chem, 2001)
